Experimental data taken from ChEMBL document CHEMBL1201862, “PubChem BioAssay data set” (2004).
Calls of active or inactive are those of the source.

Assays:
Caspase-6 = molecular target: T1, Caspase-6 (Homo sapiens, UniProt P55212); test: human caspase-6 inhibitors, dose response, biochemical, VEID-R110 fluorescence, cherry-pick (AID 720632)
T1 sequence (P55212 whole entry): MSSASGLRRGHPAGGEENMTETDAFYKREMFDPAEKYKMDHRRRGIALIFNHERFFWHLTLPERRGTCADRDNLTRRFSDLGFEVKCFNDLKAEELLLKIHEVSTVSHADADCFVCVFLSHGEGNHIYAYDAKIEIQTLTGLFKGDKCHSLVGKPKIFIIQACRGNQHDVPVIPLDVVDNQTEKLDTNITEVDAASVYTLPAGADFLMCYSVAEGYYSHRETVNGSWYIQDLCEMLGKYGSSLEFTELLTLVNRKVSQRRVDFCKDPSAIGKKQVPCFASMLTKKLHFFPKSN

Beta-galactosidase = Beta-galactosidase (Escherichia coli, UniProt Q8VNN2); test: Dose response counterscreen for EBI2 assay utilizing the enzyme, b-galactosidase.; assay type: functional
Sequence of Beta-galactosidase (Q8VNN2 whole entry, the tested form may be a part): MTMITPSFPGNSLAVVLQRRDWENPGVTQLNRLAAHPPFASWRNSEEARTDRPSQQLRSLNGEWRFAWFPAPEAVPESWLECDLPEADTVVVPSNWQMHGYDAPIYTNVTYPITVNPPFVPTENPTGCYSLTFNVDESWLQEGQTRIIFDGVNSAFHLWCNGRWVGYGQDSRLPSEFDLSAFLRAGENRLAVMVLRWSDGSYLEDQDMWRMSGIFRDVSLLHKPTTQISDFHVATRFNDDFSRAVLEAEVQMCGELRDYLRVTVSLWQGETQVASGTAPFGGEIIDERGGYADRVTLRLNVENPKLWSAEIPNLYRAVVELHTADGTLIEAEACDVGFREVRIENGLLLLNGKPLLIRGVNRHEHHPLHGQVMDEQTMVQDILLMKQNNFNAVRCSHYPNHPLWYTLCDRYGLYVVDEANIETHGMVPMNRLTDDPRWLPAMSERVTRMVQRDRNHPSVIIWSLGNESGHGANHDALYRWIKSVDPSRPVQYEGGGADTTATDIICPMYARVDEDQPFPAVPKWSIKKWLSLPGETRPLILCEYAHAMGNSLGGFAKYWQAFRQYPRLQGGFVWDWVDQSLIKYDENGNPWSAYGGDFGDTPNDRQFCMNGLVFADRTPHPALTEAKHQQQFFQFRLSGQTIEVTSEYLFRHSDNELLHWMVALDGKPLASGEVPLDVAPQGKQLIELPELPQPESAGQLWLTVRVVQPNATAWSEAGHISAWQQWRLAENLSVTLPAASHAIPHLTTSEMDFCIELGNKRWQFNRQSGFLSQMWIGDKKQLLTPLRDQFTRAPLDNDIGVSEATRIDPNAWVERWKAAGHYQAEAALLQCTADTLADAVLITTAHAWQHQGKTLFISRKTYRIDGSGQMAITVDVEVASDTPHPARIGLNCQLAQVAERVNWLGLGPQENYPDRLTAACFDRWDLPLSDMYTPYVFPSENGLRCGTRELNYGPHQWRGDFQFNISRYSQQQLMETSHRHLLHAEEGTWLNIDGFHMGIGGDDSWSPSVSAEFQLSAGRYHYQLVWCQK

[1] = molecular target: T2, Oxysterols receptor LXR-beta (Homo sapiens, UniProt P55055); assay type: functional, cell-based;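 note: agonist activity at LXR measured by a cell-based luminescence readout across a dose range, run as a counterscreen for daf-12 agonists; HEK293 cells with Gal4-LXR fusion and GAL4-driven luciferase reporter; potency for activation of Gal4-LXR reporter so compounds are agonists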
T2 sequence (P55055 whole entry): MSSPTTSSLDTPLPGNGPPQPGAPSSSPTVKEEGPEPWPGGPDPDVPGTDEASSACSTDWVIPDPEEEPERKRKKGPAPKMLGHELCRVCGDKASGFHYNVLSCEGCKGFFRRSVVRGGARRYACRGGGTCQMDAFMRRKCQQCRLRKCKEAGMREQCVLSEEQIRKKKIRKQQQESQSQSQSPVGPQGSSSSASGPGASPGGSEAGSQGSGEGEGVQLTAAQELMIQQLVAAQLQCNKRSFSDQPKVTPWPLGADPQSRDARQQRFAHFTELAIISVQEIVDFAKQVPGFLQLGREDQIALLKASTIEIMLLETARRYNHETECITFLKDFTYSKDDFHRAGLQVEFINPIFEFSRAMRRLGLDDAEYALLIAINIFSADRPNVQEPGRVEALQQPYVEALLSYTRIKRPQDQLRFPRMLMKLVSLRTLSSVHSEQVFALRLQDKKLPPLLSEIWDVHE

[2] = molecular target: Disintegrin and metalloproteinase domain-containing protein 17 (Homo sapiens, UniProt P78536); test: ADAM17 protease inhibitors, dose response, counter-screen for ADAM10 exosite inhibitor project, biochemical, quenched FRET substrate (AID 743253)
Sequence of Disintegrin and metalloproteinase domain-containing protein 17 (P78536 whole entry, the tested form may be a part): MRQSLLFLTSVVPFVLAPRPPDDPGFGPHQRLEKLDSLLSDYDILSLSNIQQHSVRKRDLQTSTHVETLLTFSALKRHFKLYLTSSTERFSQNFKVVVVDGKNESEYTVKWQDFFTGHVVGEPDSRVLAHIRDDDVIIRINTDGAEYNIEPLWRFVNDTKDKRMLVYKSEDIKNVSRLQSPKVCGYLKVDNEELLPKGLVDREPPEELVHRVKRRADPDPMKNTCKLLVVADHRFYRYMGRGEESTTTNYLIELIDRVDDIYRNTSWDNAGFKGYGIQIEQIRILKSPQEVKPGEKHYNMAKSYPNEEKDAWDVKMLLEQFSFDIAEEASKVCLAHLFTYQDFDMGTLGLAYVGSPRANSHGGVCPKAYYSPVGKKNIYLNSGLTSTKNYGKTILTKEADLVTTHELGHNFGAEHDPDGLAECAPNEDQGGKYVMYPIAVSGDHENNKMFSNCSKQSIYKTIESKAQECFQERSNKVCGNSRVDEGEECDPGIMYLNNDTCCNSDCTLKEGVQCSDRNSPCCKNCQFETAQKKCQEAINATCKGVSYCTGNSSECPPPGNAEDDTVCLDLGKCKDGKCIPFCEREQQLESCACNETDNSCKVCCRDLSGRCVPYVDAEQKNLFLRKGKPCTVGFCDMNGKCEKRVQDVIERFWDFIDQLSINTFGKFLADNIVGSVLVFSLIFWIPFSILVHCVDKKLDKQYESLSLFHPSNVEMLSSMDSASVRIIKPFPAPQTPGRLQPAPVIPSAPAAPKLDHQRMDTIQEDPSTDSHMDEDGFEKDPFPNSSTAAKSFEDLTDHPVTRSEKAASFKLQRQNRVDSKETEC

[3] = HepG2 cell cytotoxicity, dose response, cytotoxicity control for Shn3 inhibitor project, CellTiter-Glo, cherry-picked (AID 624134); assay type: functional, cell-based
[4] = Luminescence Cell-Based Dose Retest to Confirm Inhibitors of Cancer Stem Cells. [Related pubchem assays (depositor defined):AID2717, AID2721]; assay type: functional; details: Homo sapiens
[5] = molecular target: T3, COUP transcription factor 2 (Homo sapiens, UniProt P24468); test: Luminescence-based cell-based high throughput dose response assay to identify inhibitors of COUP-TFII (NR2F2).; assay type: functional;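 note: HEK293 cells transiently cotransfected with COUP-TFII expression vector and reporter; luciferase reporter luminescence driven by COUP-TFII from the pX2-168 reporter plasmid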
T3 sequence (P24468 whole entry): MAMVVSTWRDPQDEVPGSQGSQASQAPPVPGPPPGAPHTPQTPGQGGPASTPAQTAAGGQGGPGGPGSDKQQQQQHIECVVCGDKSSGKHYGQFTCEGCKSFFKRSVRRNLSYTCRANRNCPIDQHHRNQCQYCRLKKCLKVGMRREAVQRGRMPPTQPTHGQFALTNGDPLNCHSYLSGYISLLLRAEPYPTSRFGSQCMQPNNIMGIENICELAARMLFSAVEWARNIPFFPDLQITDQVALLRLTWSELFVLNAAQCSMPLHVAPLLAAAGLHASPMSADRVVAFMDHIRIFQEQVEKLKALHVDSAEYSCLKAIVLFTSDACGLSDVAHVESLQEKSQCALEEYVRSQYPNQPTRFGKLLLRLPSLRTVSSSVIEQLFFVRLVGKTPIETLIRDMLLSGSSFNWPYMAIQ

INS1 = test: beta cell apoptosis inhibitors, cytokine rescue, dose response, luminescence, retest (AID 449756); assay type: functional, cell-based; details: Rattus norvegicus;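 note: cell death triggered by IL-1 beta plus TNF-alpha plus IFN-gamma mixture; protective hits raise ATP signal compared with cytokine alone wells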
[6] = control 3'UTR Renilla luciferase suppression, dose response, counter-screen for Shn3 inhibitor project, cell-based, Clone20-Shn3RL, cherry-picked (AID 624133); assay type: functional
[7] = Shn3 3'UTR reporter inhibitors, dose response, cell-based, Clone20 osteoblasts, firefly luciferase, cherry-picked (AID 624132); assay type: functional;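 note: firefly luciferase luminescence from reporter carrying the Shn3 3'UTR in osteoblasts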
[8] = molecular target: T4, Sentrin-specific protease 1 (Homo sapiens, UniProt Q9P0U3); test: Dose response confirmation of small molecule inhibitors of the catalytic domain of the SUMO protease, SENP1 in a FRET assay.; assay type: functional; details: read-out: IC50_Mean
T4 sequence (Q9P0U3 whole entry): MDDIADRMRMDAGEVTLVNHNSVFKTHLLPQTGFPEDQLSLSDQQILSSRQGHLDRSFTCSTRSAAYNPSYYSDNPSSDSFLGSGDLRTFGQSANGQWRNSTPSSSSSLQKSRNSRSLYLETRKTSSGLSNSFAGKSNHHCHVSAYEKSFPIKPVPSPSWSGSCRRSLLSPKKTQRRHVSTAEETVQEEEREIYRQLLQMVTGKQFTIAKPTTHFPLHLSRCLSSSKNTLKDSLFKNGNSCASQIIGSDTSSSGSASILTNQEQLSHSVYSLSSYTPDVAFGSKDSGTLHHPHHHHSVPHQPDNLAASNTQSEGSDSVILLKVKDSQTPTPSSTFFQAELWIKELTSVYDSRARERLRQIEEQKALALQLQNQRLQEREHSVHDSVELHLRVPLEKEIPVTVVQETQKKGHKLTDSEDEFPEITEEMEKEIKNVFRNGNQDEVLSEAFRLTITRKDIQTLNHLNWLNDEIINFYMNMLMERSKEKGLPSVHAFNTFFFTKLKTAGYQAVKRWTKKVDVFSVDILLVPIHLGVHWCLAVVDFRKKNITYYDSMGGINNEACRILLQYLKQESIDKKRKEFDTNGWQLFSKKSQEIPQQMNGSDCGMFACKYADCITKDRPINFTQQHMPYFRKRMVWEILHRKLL

[9] = molecular target: T5, Zinc finger protein mex-5 (Caenorhabditis elegans, UniProt Q9XUB2); test: MEX-5/TCR-2 RNA interaction inhibitors, dose response, biochemical, C. elegans, fluorescence polarization (AID 1960)
T5 sequence (Q9XUB2 whole entry): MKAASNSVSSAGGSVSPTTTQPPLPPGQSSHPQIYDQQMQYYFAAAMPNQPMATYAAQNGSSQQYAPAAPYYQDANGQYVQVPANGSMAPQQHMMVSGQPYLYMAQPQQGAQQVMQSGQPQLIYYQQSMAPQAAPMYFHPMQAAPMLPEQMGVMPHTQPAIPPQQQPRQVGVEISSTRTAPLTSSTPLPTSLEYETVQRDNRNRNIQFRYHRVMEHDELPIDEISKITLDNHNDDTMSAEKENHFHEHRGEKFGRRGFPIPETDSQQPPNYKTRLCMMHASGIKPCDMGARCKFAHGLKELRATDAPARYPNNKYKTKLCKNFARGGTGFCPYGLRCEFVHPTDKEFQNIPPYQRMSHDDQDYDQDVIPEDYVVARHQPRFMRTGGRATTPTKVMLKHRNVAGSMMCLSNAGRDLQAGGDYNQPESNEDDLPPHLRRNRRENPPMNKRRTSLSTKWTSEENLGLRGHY

[10] = molecular target: T6, RNA-binding protein pos-1 (Caenorhabditis elegans, UniProt G5EF15); test: inhibitors of POS-1/mex-3 RNA binding, dose response, biochemical, fluorescence polarization (AID 1964);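 note: purified POS-1 fused to maltose binding protein made in E. coli; potency of compounds blocking POS-1 binding to fluorescent RNA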
T6 sequence (G5EF15 whole entry): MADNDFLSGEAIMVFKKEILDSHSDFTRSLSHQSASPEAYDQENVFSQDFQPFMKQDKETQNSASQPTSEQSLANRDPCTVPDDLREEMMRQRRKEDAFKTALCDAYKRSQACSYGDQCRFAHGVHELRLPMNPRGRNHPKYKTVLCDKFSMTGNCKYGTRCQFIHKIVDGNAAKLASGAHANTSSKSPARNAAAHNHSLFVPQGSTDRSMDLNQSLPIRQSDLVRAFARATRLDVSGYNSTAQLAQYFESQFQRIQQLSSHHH

## CC(C)(C)c1ccc(C(=O)Nn2c(CCC(=O)O)ccc2-c2cccs2)cc1
Caspase-6
  AC50: 45.1 µM (active)

## Cc1occc1-c1nnc(SCC(=O)NCCc2ccccc2)n1Cc1ccccc1
Beta-galactosidase
  IC50: > 80 µM (inactive)

## O=C(Nc1nnc(Cc2c[nH]c3ccccc23)s1)c1ccc(Cl)cc1Cl
Caspase-6
  AC50: 49.2 µM (active)

## CN(C)CCNc1ncnc2c1ncn2[C@H]1CN(Cc2cccnc2)C[C@@H](CO)O1
[1]
  EC50: > 67.5 µM (inactive)

## COc1ccc(-c2ccc(-c3noc(-c4cccc(OC)c4)n3)c(OC)n2)cc1
[2]
  IC50: > 69.5 µM (inactive)

## Oc1ccc(CCNc2ncnc3ccc(Cl)cc23)cc1
[3]
  AC50: 43 µM (active)
[4]
  AC50: 1.57 µM (active)
[5]
  IC50: 5.5 µM (active)
INS1
  AC50: 3.73 µM (active)
[6]
  AC50: 0.942 µM (active)
[7]
  AC50: 0.551 µM (active)

## O=C(c1ccccc1)[C@@H]1[C@@H]2C(=O)N(c3ccc(F)cc3)C(=O)[C@@H]2C2CCCN21 (some centres undefined)
[8]
  IC50: 7.78 µM (active)
[9]
  EC50: 40.9 µM (active)
[10]
  EC50: 37.9 µM (active)
